Test results from patent US20140140962A1, “VIRUSES MODIFIED WITH UNNATURAL MOIETIES AND METHODS OF USE THEREOF” (priority 2011, published 2014).

How the values were obtained:
HEK 293 cells = test: Plaque forming assay (infectivity); type: cell-based; details: inferred from plaque assays, even at high concentration
Protocol: Dulbecco's modified Eagle's medium (DMEM), RPMI 1640, penicillin/streptomycin and 0.5% trypsin-EDTA were purchased from GIBCO (Grand Island, N.Y.). RPMI 1640 minus folic acid was obtained from Sigma. Fetal calf serum (FCS) and bovine calf serum (BCS) was purchased from HyClone (Logan, Utah). 293 cells were maintained in DMEM supplemented with 10% BCS, 2 mM glutamine, 100 U/mL penicillin, 100 μg/mL streptomycin. 4T1 cells (ATCC) were maintained in RPMI 1640 medium containing 10% FCS, 2 mM L-glutamine, 100 U/mL penicillin, and 100 μg/mL streptomycin. For 4T1 cells grown without folate, RPMI 1640 minus folic acid was supplemented with 10% FCS, 0.3 mg/mL L-glutamine, 2 mg/mL sodium bicarbonate, 100 U/mL penicillin, 100 μg/mL streptomycin. All cells were maintained in 100×20 mm tissue culture dishes obtained from BD biosciences (Franklin Lakes, N.J.) at 37° C. and 5% CO2. HEK 293 cells in […] culture plates were infected with 400 μL of azide labeled virus particles at concentrations of 10^3 particles/mL. The plates were overlaid with complete media containing 2.8% bactoagar and 10% BCS. […] The plaques were counted within a day after the final overlay.
HEK 293 cells cultivated in 6 mL culture plates were infected with 400 μL of azide labeled virus particles at concentrations of 10^3 particles/ml. […] The plaques were counted within a day after the final overlay.

[1] = tested on: cancer stem cell related genes (Oct4, Sox2, Nanog, and c-Myc); details: 3 unrelated invasive colon cancer cell lines; cited from earlier work
[2] = tested on: drug resistant cancer cell lines; details: cited from earlier work

| Structure (SMILES) | toxicity to the cells (HEK 293 cells) | inhibition of cancer stem cell related genes [1] | cytotoxicity against drug resistant cancer cell lines [2] |
| --- | --- | --- | --- |
| [N-]=[N+]=NCC[C@H](N)C(=O)O [Aha, Azidohomoalanine] | not toxic to the cells | – | – |
| CC(=O)O[C@@]12CO[C@@H]1C[C@H](O)[C@@]1(C)C(=O)[C@H](OC(=O)C3CC3)C3=C(C)[C@@H](OC(=O)[C@H](O)[C@H](C=C(C)C)NC(=O)OC(C)(C)C)C[C@@](O)([C@@H](OC(=O)c4ccccc4)[C@H]21)C3(C)C [SB-T-1214] | – | substantial inhibition | significantly improved cytotoxicity |
